The values that follow come from patent publication US4547489A, “Conformationally restricted thymopentin-like compounds” (Ortho Pharmaceutical Corporation, priority 1984, dated 1985).

Where a SMILES comes first, the peptide text is derived from it. Where no end group is shown, it is not given here.

The first assay relates to isolated thymopoietin cell surface receptor protein from CEM cells.
Test: not given
The settings on record: 2.3×10^-10 M 125I-Tp, 4 μg receptor protein, TP 37-45 nonapeptide present, 12 h.
Turning to `C[C@H](N)C(=O)NCC(=O)N[C@H]1CSSC[C@@H](C(=O)O)NC(=O)[C@H](CO)NC(=O)[C@H]([C@@H](C)O)NC(=O)[C@H](Cc2ccccc2)NC(=O)[C@H]([C@@H](C)O)NC(=O)[C@H](CCCCN)NC(=O)[C@H](Cc2c[nH]c3ccccc23)NC(=O)[C@H](Cc2ccccc2)NC(=O)[C@H](Cc2ccccc2)NC(=O)[C@H](CC(N)=O)NC(=O)[C@H](CCCCN)NC1=O` [somatostatin], the “displacement of 125I-thymopoietin (in words)” value (from here on “displacement”) is “no detectable displacement”.

Consider “ACTH: adrenocorticotropic hormone (SYSMEHFRWGKPVGKKRRPVKVYPNGAEDESAEAFPLEF; Corticotropin; UniProt P01189 138-176, looked up)”, for which the “displacement” value is given as “no detectable displacement”.

Take “CRF: corticotropin-releasing factor (SEEPPISLDLTFHLLREVLEMARAEQLAQQAHSNRKLMEII; ends and bridges not checked; UniProt P06850 154-194, looked up)”: the “displacement” value is “no detectable displacement”.

Turning to “glucagon: comparison peptide in the receptor assay”, the “displacement” value is “no detectable displacement”.

On to “growth hormone: comparison peptide in the receptor assay”, for which the “displacement” value is reported as “no detectable displacement”.

Turning to ubiquitin, the “displacement” value was “no detectable displacement”.

Take “β-endorphin: comparison peptide in the receptor assay (YGGFMTSEKSQTPLVTLFKNAIIKNAYKKGE; Beta-endorphin; UniProt P01189 237-267, looked up)”: the “displacement” value is listed as “no detectable displacement”.

For the next assay, the system named is cell membrane receptor of the intact CEM cell. The assay is described as follows: Cyclic-GMP assay: induction of cyclic-GMP production in CEM cells. The class given is cell-based, human. The conditions noted are these: 4-5 min incubation at 37° C., radioimmunoassay of cyclic GMP. An excerpt: This biological activity is evidenced by an assay measuring induction of cyclic-GMP production in a human T-cell line in comparison with thymopoietin. The induction of c-GMP production by a test peptide in this assay indicates the ability of the test peptide to bind to the thymopoietin receptor site on the cell and induce thymopoietin-like biological activity.
This assay measures the ability of the test peptide to bind to the cell membrane receptor of the intact CEM cell and selectively stimulate production of cyclic-GMP, as does thymopoietin itself.
The CEM cell line was obtained from the American Type Culture Collection and was cultured in RPMI-1640 medium supplemented with 10% heat-inactivated fetal bovine serum, 10% heat-inactivated horse serum, 2mM L-glutamine, and 50 µg/ml gentamycin at 37° C. in a humid atmosphere containing 5 percent CO2, to a final density of 3-4×10^6 cells/ml. […]
The cells in TCA were then homogenized and sonicated to release cyclic nucleotide. The resulting suspension was centrifuged at 3000 g for 20 min at 4° C. and the resulting precipitate was dissolved in 0.1N NaOH and sonicated for a further 30 minutes, after which the protein content was determined by the method of Cadman, et al., Anal. Biochem., 96, 21-23 (1979). […]
As for `CC(C)[C@@H]1NC(=O)[C@H](CC(=O)O)NC(=O)[C@H](CCCCN)NC(=O)[C@H](CCCNC(=N)N)NC(=O)[C@H](Cc2ccc(O)cc2)NC1=O` [peptide 1, Cyclo-(Arg-Lys-Asp-Val-Tyr)] (cyclo(DVYRK)), the “thymopentin-like activity (cyclic GMP induced by test peptide)” value is reported as “demonstrated thymopentin-like activity”.

Turning to `CC(C)[C@@H]1NC(=O)[C@H](CC(=O)O)NC(=O)[C@H](CCCCN)NC(=O)[C@H](CCCNC(=N)N)NC(=O)CNC(=O)[C@H](Cc2ccc(O)cc2)NC1=O` [peptide 2, Cyclo-[Arg-Lys-Asp-Val-Tyr-Gly]] (cyclo(DVYGRK)), the “thymopentin-like activity (cyclic GMP induced by test peptide)” value is “demonstrated thymopentin-like activity”.
